In ChEMBL document CHEMBL4680368, “Myeloid Cell Leukemia-1 Inhibitors as Emerging Cancer Treatment” (ACS Med Chem Lett, 2021) one finds AC50 and Ki data, which are given here for ten compounds.

Test [1] can be described thus: Induction of apoptosis in human MOLP8 cells assessed as increase in caspase 3/7 activation incubated for 2 hrs by luminometric caspase-glo 3/7 assay. The format is functional, cell-based. Conditions: MOLP-8, 2 h.
Test [2] deals with Induced myeloid leukemia cell differentiation protein Mcl-1 (Homo sapiens, UniProt Q07820). Description: Inhibition of Terbium-labeled BIM BH3 peptide binding to MCL1 (unknown origin) incubated for 60 mins by HTRF assay.
Chain of Induced myeloid leukemia cell differentiation protein Mcl-1 (Q07820 whole entry): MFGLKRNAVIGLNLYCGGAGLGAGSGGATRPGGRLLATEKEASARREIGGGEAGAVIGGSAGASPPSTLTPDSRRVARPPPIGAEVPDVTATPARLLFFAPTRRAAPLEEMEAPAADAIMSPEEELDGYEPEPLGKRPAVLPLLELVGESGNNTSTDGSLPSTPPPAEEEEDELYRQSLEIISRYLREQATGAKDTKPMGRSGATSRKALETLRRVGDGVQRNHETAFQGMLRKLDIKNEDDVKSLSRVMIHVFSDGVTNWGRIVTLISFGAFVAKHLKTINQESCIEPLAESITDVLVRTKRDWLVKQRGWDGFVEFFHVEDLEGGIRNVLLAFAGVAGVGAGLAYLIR

With `C[C@@H]1[C@@H](C)C/C=C(\F)[C@H](CO)N2CC[C@H]2CN2C[C@@]3(CCCc4cc(Cl)ccc43)COc3ccc(cc32)C(=O)NS1(=O)=O`, the concentration at half-maximal activity (AC50) in test [1] was 144 nM.
For the compound `C[C@@H]1[C@@H](C)C/C=C(\F)[C@H](COc2ccccn2)N2CC[C@H]2CN2C[C@@]3(CCCc4cc(Cl)ccc43)COc3ccc(cc32)C(=O)NS1(=O)=O`, the AC50 in test [1] worked out at 1490 nM.
In test [2], `C[C@@H]1[C@@H](C)C/C=C(\F)CN2CC[C@H]2CN2C[C@@]3(CCCc4cc(Cl)ccc43)COc3ccc(cc32)C(=O)NS1(=O)=O` showed an inhibition constant (Ki) of 0.84 nM. Besides, the AC50 in test [1] stood at 692 nM.
Regarding `COC[C@H]1/C(F)=C/C[C@H](C)[C@@H](C)S(=O)(=O)NC(=O)c2ccc3c(c2)N(C[C@@H]2CCN21)C[C@@]1(CCCc2cc(Cl)ccc21)CO3`, the AC50 in test [1] came to 181 nM.
The same measure, in the same setting: next, `C[C@@H]1[C@@H](C)C/C=C(\F)[C@H](CN2CCN3CCOC[C@@H]3C2)N2CC[C@H]2CN2C[C@@]3(CCCc4cc(Cl)ccc43)COc3ccc(cc32)C(=O)NS1(=O)=O`: 120 nM.
Still for that read-out and setting: then `C[C@@H]1[C@@H](C)C/C=C(\F)[C@H](COCC(=O)O)N2CC[C@H]2CN2C[C@@]3(CCCc4cc(Cl)ccc43)COc3ccc(cc32)C(=O)NS1(=O)=O`, with 5990 nM.
In turn, `COCCOCC1(COCCOC)/C(F)=C/C[C@H](C)[C@@H](C)S(=O)(=O)NC(=O)c2ccc3c(c2)N(C[C@@H]2CCN21)C[C@@]1(CCCc2cc(Cl)ccc21)CO3` had a Ki in test [2] of 0.25 nM. For the same compound, the AC50 in test [1] is 152 nM.
For `C[C@@H]1[C@@H](C)C/C=C(\F)[C@H](COCCCN2CCOCC2)N2CC[C@H]2CN2C[C@@]3(CCCc4cc(Cl)ccc43)COc3ccc(cc32)C(=O)NS1(=O)=O`, the AC50 in test [1] was found to be 231 nM.
Consider `C[C@@H]1[C@@H](C)C/C=C(\F)C(CO)(CO)N2CC[C@H]2CN2C[C@@]3(CCCc4cc(Cl)ccc43)COc3ccc(cc32)C(=O)NS1(=O)=O`, for which the AC50 in test [1] was determined as 2390 nM.
As to `COCCCOC[C@H]1/C(F)=C/C[C@H](C)[C@@H](C)S(=O)(=O)NC(=O)c2ccc3c(c2)N(C[C@@H]2CCN21)C[C@@]1(CCCc2cc(Cl)ccc21)CO3`, the AC50 in test [1] was determined as 274 nM.
